PMC4607367, “Gedunin and Azadiradione: Human Pancreatic Alpha-Amylase Inhibiting Limonoids from Neem (Azadirachta indica) as Anti-Diabetic Agents” (PLoS ONE, 2015)
Entries after “also recorded” stand apart in the source; their conditions may differ.

Legend:
HPA = target: HPA; design: method as in PMID 15736945; conditions: ref [60], cited from earlier work
[1] = target: T1, Porcine pancreatic α-amylase (PPA) (Sus scrofa, UniProt P00690); experiment: Porcine pancreatic α-amylase inhibition assay, chromogenic DNSA method (primary screening); type: biochemical; conditions: for PPA inhibition (result in words): inhibitors 13.8–214.3 μM; for IC50: starch 1% w/v, pH 6.9, 37°C
T1 construct: purchased SRL, Mumbai, India
T1 sequence (P00690 16-511): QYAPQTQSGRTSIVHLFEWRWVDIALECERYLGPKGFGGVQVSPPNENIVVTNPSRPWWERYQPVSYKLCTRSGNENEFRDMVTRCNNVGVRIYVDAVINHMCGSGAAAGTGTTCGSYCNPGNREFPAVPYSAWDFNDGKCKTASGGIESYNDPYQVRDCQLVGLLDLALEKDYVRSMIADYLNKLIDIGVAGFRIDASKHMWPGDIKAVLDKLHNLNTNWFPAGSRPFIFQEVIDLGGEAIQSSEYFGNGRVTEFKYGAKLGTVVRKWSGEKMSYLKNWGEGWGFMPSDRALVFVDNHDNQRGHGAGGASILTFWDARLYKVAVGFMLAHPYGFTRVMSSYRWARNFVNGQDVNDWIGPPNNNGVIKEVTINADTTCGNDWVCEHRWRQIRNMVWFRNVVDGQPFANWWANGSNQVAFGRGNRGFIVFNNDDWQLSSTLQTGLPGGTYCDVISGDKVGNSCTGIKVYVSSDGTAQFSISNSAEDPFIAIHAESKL
Protocol: The inhibition assay was performed using the chromogenic DNSA method. PPA was used for preliminary screening of α-amylase inhibitors. […] Moreover a high degree gene sequence similarity (~ 90%) exists between human salivary α-amylase (HSA) and PPA as reported by (Buisson et al 1987). Brayer et al (1995) have reported 97% primary sequence similarity between human salivary and human pancreatic α-amylases and a 70% structural similarity between PPA and HPA [11]. Thus, a high degree of similarity between PPA and HPA allows us to use it as the enzyme for screening inhibitors.
In brief, the total assay mixture consisting of 0.02 M sodium phosphate buffer, pH6.9, (containing 6 mM NaCl), 0.2–0.25 U of PPA and inhibitors (13.8–214.3 μM) in DMSO was incubated at 37°C for 10 min. After pre-incubation, the substrate starch (1%, w/v) solution was added to the reaction mixture and further incubated for 15 min. The control PPA (0.21 U) without any inhibitor represented 100% enzyme activity. One unit of enzyme activity is defined as the amount of enzyme required to release one micromole of maltose from starch/maltopentaose per min under the assay conditions. The other quantifiers calculated were: % Relative enzyme activity = (enzyme activity of test/enzyme activity of control)*100. % inhibition = (100 − % relative enzyme activity).
The IC50 values were determined from plots of percent inhibition versus inhibitor concentration and calculated by logarithmic regression analysis. To eliminate the absorbance produced by the compound, appropriate controls were included. The known PPA/HPA inhibitor acarbose was used as a positive control at a concentration range of 10–50 μM.

PPA = system: PPA; design: method as in PMID 22975503; conditions: ref [25],[26], cited from earlier work; for IC50: value in brackets
[2] = target: T2, secreted pancreatic α-amylase of AR42J cells (Rattus norvegicus, UniProt P00689); experiment: Bioactivity: inhibition of secreted pancreatic α-amylase in dexamethasone-induced AR42J cells, incl. starch load test (DNSA); type: cell-based; conditions: for Amylase inhibition at the cytotoxic IC50 concentration: 24 h, at 11.1, 13.4 and 4.1 μM respectively
T2 construct: host or cells: AR42J rat pancreatic acinar cells, induced with 10 nM dexamethasone
T2 sequence (P00689 16-508): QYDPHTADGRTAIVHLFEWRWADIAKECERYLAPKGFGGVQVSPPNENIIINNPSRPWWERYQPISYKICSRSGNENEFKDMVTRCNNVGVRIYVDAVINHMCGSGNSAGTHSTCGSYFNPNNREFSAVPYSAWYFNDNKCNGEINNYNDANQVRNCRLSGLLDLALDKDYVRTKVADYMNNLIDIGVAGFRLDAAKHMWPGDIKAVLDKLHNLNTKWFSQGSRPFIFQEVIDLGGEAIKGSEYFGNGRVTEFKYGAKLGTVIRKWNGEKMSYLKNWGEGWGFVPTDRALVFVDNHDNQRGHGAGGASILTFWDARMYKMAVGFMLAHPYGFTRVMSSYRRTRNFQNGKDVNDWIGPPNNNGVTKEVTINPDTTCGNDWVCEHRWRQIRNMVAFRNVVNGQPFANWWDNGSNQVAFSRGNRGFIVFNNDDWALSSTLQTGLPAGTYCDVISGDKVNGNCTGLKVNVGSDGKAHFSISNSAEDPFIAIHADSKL
From the text: Appropriate medium and DMSO controls were simultaneously set up.

[3] = target: T3, Human pancreatic α-amylase (HPA) (Homo sapiens, UniProt P04746); experiment: Human pancreatic α-amylase inhibition and stoichiometry (DNSA); type: biochemical
T3 construct: purchased Sigma Aldrich, USA
T3 sequence (P04746 16-511): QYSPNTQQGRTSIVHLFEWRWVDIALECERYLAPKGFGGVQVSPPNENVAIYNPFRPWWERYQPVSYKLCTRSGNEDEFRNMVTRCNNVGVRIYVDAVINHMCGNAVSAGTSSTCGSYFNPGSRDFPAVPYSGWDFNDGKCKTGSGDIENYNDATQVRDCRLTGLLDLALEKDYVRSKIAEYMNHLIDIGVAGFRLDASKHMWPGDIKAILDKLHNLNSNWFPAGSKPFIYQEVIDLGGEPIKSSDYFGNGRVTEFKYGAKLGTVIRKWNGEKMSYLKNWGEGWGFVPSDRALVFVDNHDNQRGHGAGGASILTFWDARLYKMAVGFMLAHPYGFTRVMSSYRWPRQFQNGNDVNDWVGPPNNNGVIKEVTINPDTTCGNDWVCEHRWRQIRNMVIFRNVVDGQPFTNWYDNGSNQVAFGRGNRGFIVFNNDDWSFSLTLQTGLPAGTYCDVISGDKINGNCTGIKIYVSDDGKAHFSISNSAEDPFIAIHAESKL
From the text: The control HPA (0.25 U) without inhibitors represented 100% enzyme activity.

[4] = target: T3, Human pancreatic α-amylase (HPA); experiment: HPA inhibition kinetics (Michaelis-Menten, Lineweaver-Burk, secondary plots); type: biochemical
Protocol: The mode of inhibition of HPA by the lead inhibitors azadiradione and gedunin were determined using Michaelis-Menton and Lineweaver-Burk equations. Starch (1–5mg ml^-1) and maltopentaose (0.05–0.4mM) were incubated with inhibitors-HPA for 10 and 2.5 min, respectively and the residual enzyme activity determined by DNSA method for starch and Nelson-Somogyi’s method for maltopentaose.The inhibitor constants(K i) were determined on the basis of mode of inhibition.

[5] = target: T3, Human pancreatic α-amylase (HPA); experiment: Ligand binding to HPA by fluorescence quenching titration, thermodynamic parameters
Protocol: Ligand binding studies using fluorescence measurements of HPA were carried as described in our earlier report. […] Non-linear and linear regression analyses were used to analyze the data.
The thermodynamic parameters, association constants (K a), dissociation constant (K d) and Gibbs free energy (ΔG°) of binding for azadiradione and gedunin were determined at various temperatures 25°C to 60°C by fluorescence quenching studies.

[6] = Cytotoxicity in AR42J cell line (MTT); conditions: rat, AR42J pancreatic acinar cells
Protocol: (§1) Cells were seeded at 2×10^4 cells well^-1 onto 96 wells culture dish. […] Appropriate medium and DMSO controls were simultaneously set up. […] At the end of 24 h incubation period the culture media was removed from the samples and fresh culture media (100 μl) containing 20 μl of MTT tetrazolium bromide (5 mg ml^-1) added and incubated for 3 h at 37°C. Metabolically active cells reduce MTT to insoluble purple formazan dye crystals, which were dissolved by addition of 300 μl DMSO solution at the end of the incubation period and quantitated at 550 nm [34].

[7] = system: AR42J rat pancreatic acinar cells; experiment: Cytotoxicity in AR42J cell line (MTT); conditions: AR42J
Protocol: as §1

[8] = linear van't Hoff plot, 298–333 K

C[C@H]1O[C@H](O[C@H]2[C@H](O)[C@@H](O)[C@@H](O[C@H]3[C@H](O)[C@@H](O)C(O)O[C@@H]3CO)O[C@@H]2CO)[C@H](O)[C@@H](O)[C@@H]1N[C@H]1C=C(CO)[C@@H](O)[C@H](O)[C@H]1O (some centres unmarked) [Acarbose, acarbose]
Ki (HPA; 2-chloro-4-nitrophenyl-α-maltotrioside as substrate): 22 µM | Mode of HPA inhibition (HPA): noncompetitive

C/C=C(\C)C(=O)O[C@H]1C[C@@H](OC(C)=O)[C@@]2(C(=O)OC)CO[C@H]3[C@@H](O)[C@@](C)([C@]45O[C@@]4(C)[C@@H]4C[C@H]5O[C@@H]5OC=C[C@@]54O)[C@H]4[C@]1(CO[C@]4(O)C(=O)OC)[C@@H]32 [azadirachtin A]
PPA inhibition (result in words) [1]: No inhibition; also recorded: no bioactivity

CC(=O)O[C@@H]1C[C@H](OC(=O)C=C(C)C)[C@@]2(C)[C@H]3[C@@H](OC[C@]13C)[C@@H](O)[C@@]1(C)C3=CC[C@@H]([C@@H]4COC(=O)C4)[C@]3(C)CC[C@@H]12 [azadirachtolide]
IC50 with PPA (PPA): 55.8 µg/mL | IC50 (PPA): 94.1 µM

CC(=O)O[C@@H]1C[C@H]2C(C)(C)C(=O)C=C[C@]2(C)[C@H]2CC[C@]3(C)C(=CC[C@H]3c3ccoc3)[C@@]21C [azadirone]
PPA inhibition (result in words) [1]: No inhibition; also recorded: no activity was observed

COC(=O)C[C@H]1[C@]2(C)C3=C(C)[C@H](c4ccoc4)C[C@H]3O[C@@H]2[C@H](OC(C)=O)[C@@H]2[C@]1(C)C(=O)C=C[C@@]2(C)C(=O)OC [nimbin]
PPA inhibition (result in words) [1]: No inhibition; also recorded: no bioactivity

CC=C(C)C(=O)OC1CC(O)C23COC(C(=O)OC)C2C(C)(C24OC2(C)C2CC4OC4OC=CC42O)C(O)C2OCC1(C(=O)OC)C23 (centres unmarked) [azadirachtin B]
PPA inhibition (result in words) [1]: No inhibition; also recorded: no bioactivity

CC(=O)O[C@@H]1C[C@H]2C(C)(C)C(=O)C=C[C@]2(C)[C@H]2CC[C@@]3(C)[C@H](c4ccoc4)OC(=O)[C@H]4O[C@]43[C@@]21C [gedunin]
IC50 [1]: 72.2 µM | Secreted amylase inhibition in starch load test ([2]; AR42J, 0.5% (w/v) starch, up to two hours): 31.7% | Amylase inhibition at the cytotoxic IC50 concentration ([2]; AR42J): 69.2% | inhibition at 3.3 µM ([2]; AR-42J, AR42J, 3.3 μM): 53.4% | Stoichiometry of HPA inactivation ([3]; percentage inhibition versus molar ratio of HPA and inhibitor, HPA 14.85 μM): 0.68 | IC50 ([3]; starch substrate, sigmoidal fit): 68.4 µM | Ki ([4]; maltopentaose as substrate, secondary plots): 18.6 µM | Apparent K i ′ ([4]; starch as substrate, secondary plots): 37.4 µM | Mode of HPA inhibition ([4]; substrates starch and maltopentaose, Lineweaver-Burk): mixed | -ΔG° ([5]; 298 K): 21.16 k J mol^-1 | K a ([5]; 298 K): 5100 M⁻¹ | Kd ([5]; 298 K): 200 ± 9 µM | -ΔG° ([5]; 303 K): 20.57 k J mol^-1 | K a ([5]; 303 K): 3500 M⁻¹ | Kd ([5]; 303 K): 300 ± 3 µM | -ΔG° ([5]; 308 K): 16.4 k J mol^-1 | K a ([5]; 308 K): 600 M⁻¹ | Kd ([5]; 308 K): 1600 ± 1 µM | -ΔG° ([5]; 313 K): 12.4 k J mol^-1 | K a ([5]; 313 K): 120 M⁻¹ | Kd ([5]; 313 K): 8300 ± 50 µM | -ΔG° ([5]; 323K): 11.8 k J mol^-1 | K a ([5]; 323K): 80 M⁻¹ | Kd ([5]; 323K): 12200 ± 600 µM | -ΔG° ([5]; 333K): 7.4 k J mol^-1 | K a ([5]; 333K): 10 M⁻¹ | Kd ([5]; 333K): 67200 ± 800 µM | Maximal quenching of intrinsic HPA fluorescence ([5]; 350 nm, azadiradione 3.9–118 μM, gedunin 2.0–51.86 μM): 19% | Maximum ΔG° of binding ([5]; calculated from binding constants, maximal affinity at 298 K): -5.057 kcal/mol | Enthalpy (ΔHvH) [5, 8]: -33.44 kcal/mol | Entropy (-ΔS) [5, 8]: 397.84 J mol^-1K^-1 | IC50 at 24 h [6]: 13.4 µM | Cell death ([7]; 3.3 μM): 8.6% | Cell morphology versus controls ([7]; azadiradione 3.5 μM, gedunin 3.3 μM (Fig 3)): no morphological change

CC(=O)O[C@@H]1C[C@H]2C(C)(C)C(=O)C=C[C@]2(C)[C@H]2CC[C@@]3(C)[C@H](c4ccoc4)C(=O)[C@H]4O[C@]43[C@@]21C [epoxyazadiradione]
IC50 [1]: 100 µM | Amylase inhibition at the cytotoxic IC50 concentration ([2]; AR42J): 53.2% | inhibition at 1.7 µM ([2]; AR-42J, read-out: Pancreatic (secreted) α-amylase inhibition): 31.8% | IC50 at 24 h [6]: 4.1 µM | Cell death ([7]; 1.7 μM): 2.7%

C/C=C(/C)C(=O)O[C@H]1C[C@@H](OC(C)=O)[C@@]2(C)CO[C@H]3[C@H]4O[C@@H]5C[C@@H](c6ccoc6)C(C)=C5[C@@]4(C)[C@H](CC(=O)OC)[C@]1(C)[C@@H]32 [salannin]
PPA inhibition (result in words) [1]: No inhibition; also recorded: no bioactivity

CC(C)=CC(=O)O[C@H]1C[C@@H](O)[C@@]2(C)CO[C@H]3[C@@H](O)[C@@]4(C)C5=CC[C@@H](c6ccoc6)[C@]5(C)CC[C@@H]4[C@]1(C)[C@@H]32 [meliacinolin]
IC50 with PPA (PPA): 46.74 µg/mL | IC50 (PPA): 91.6 µM
